Results as given in ChEMBL document CHEMBL1201862, “PubChem BioAssay data set” (2004).
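Assay format: 96-well plates, 48-hour exposure. Abbreviation: GI50, concentration required for 50% inhibition of growth.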 Calls of active or inactive are those of the source. Cut-off read from the data, not from the text of the source: active = GI50 up to about 1.1 µM and inactive = higher.

Key:
Test in all cases: NCI anticancer screen, dose series, 48 h
[1] = test system: SN12C
[2] = test system: MDA-MB-231
[3] = test system: SR
[4] = test system: SW-620
[5] = test system: OVCAR-3
[6] = test system: MCF7
[7] = test system: ACHN
[8] = test system: OVCAR-8
[9] = test system: T47D
[10] = test system: HCT-116
[11] = test system: PC-3
[12] = test system: HCT-15
[13] = test system: A498
[14] = test system: SNB-75
[15] = test system: Hs-578T
[16] = test system: K562
[17] = test system: A549
[18] = test system: SK-OV-3
[19] = test system: UO-31
[20] = test system: SK-MEL-28
[21] = test system: TK-10
[22] = test system: SNB-19
[23] = test system: OVCAR-4
[24] = test system: HL-60
[25] = test system: NCI-H460
[26] = test system: RXF 393
[27] = test system: SK-MEL-2
[28] = test system: BT-549
[29] = test system: DU-145
[30] = test system: OVCAR-5
[31] = test system: SF-539
[32] = test system: NCI-H522
[33] = test system: SK-MEL-5
[34] = test system: MDA-MB-435
[35] = test system: EKVX
[36] = test system: COLO 205
[37] = test system: U-251
[38] = test system: MDA-N
[39] = test system: SF-295
[40] = test system: LOX IMVI
[41] = test system: CAKI-1
[42] = test system: CCRF-CEM
[43] = test system: HOP-92
[44] = test system: NCI/ADR-RES
[45] = test system: MOLT-4
[46] = test system: KM12
[47] = test system: NCI-H226
[48] = test system: RPMI-8226
[49] = test system: HOP-62
[50] = test system: UACC-62
[51] = test system: IGROV-1
[52] = test system: 786-0
[53] = test system: UACC-257
[54] = test system: NCI-H23
[55] = test system: HCC 2998
[56] = test system: M14
[57] = test system: SF-268
[58] = test system: HT-29
[59] = test system: Malme-3M

## COc1ccc2oc(C(=O)N3CC(CCl)c4ccc(N)cc43)cc2c1 (stereo not drawn)
[1]
  GI50: 0.869 µM (active)
[2]
  GI50: 0.826 µM (active)
[3]
  GI50: 0.16 µM (active)
[4]
  GI50: 0.348 µM (active)
[5]
  GI50: 0.918 µM (active)
[6]
  GI50: 0.465 µM (active)
[7]
  GI50: 0.147 µM (active)
[8]
  GI50: 0.279 µM (active)
[9]
  GI50: 0.31 µM (active)
[10]
  GI50: 0.161 µM (active)
[11]
  GI50: 0.296 µM (active)
[12]
  GI50: 0.238 µM
[13]
  GI50: 0.296 µM (active)
[14]
  GI50: 0.308 µM (active)
[15]
  GI50: 0.857 µM (active)
[16]
  GI50: 0.39 µM (active)
[17]
  GI50: 0.303 µM (active)
[18]
  GI50: 1.35 µM (inactive)
[19]
  GI50: 0.194 µM (active)
[20]
  GI50: 0.42 µM (active)
[21]
  GI50: 2.9 µM (inactive)
[22]
  GI50: 1.14 µM (inactive)
[23]
  GI50: 0.286 µM (active)
[24]
  GI50: 0.415 µM (active)
[25]
  GI50: 0.203 µM (active)
[26]
  GI50: 0.249 µM (active)
[27]
  GI50: 0.238 µM (active)
[28]
  GI50: 0.299 µM (active)
[29]
  GI50: 0.247 µM (active)
[30]
  GI50: 0.53 µM (active)
[31]
  GI50: 0.481 µM (active)
[32]
  GI50: 0.0189 µM (active)
[33]
  GI50: 0.176 µM (active)
[34]
  GI50: 0.332 µM (active)
[35]
  GI50: 0.933 µM (active)
[36]
  GI50: 0.284 µM (active)
[37]
  GI50: 0.333 µM (active)
[38]
  GI50: 0.553 µM (active)
[39]
  GI50: 0.344 µM (active)
[40]
  GI50: 0.356 µM (active)
[41]
  GI50: 0.185 µM (active)
[42]
  GI50: 0.36 µM (active)
[43]
  GI50: 0.358 µM (active)
[44]
  GI50: 0.213 µM (active)
[45]
  GI50: 0.255 µM (active)
[46]
  GI50: 0.242 µM (active)
[47]
  GI50: 1.16 µM (inactive)
[48]
  GI50: 0.226 µM (active)
[49]
  GI50: 0.995 µM (active)
[50]
  GI50: 0.192 µM (active)
[51]
  GI50: 0.213 µM (active)
[52]
  GI50: 0.133 µM (active)
[53]
  GI50: 0.596 µM (active)
[54]
  GI50: 0.174 µM (active)
[55]
  GI50: 0.489 µM (active)
[56]
  GI50: 0.805 µM (active)
[57]
  GI50: 0.354 µM (active)
[58]
  GI50: 0.357 µM (active)

## COC(=O)C(CCCCN)NC(=O)C(CCCCN)NC(=O)C(CCCCN)NC(C)=O.Cc1ccc(C(=O)Nc2ccc(S(=O)(=O)O)c3cc(S(=O)(=O)O)cc(S(=O)(=O)O)c23)cc1NC(=O)c1cccc(NC(=O)Nc2cccc(C(=O)Nc3cc(C(=O)Nc4ccc(S(=O)(=O)O)c5cc(S(=O)(=O)O)cc(S(=O)(=O)O)c45)ccc3C)c2)c1
[1]
  GI50: > 50 µM (inactive)
[2]
  GI50: > 50 µM (inactive)
[3]
  GI50: > 50 µM (inactive)
[4]
  GI50: > 50 µM (inactive)
[5]
  GI50: > 50 µM (inactive)
[6]
  GI50: > 50 µM (inactive)
[7]
  GI50: > 50 µM (inactive)
[8]
  GI50: > 50 µM (inactive)
[9]
  GI50: > 50 µM (inactive)
[10]
  GI50: > 50 µM (inactive)
[11]
  GI50: > 50 µM (inactive)
[12]
  GI50: 18.6 µM
[13]
  GI50: > 50 µM (inactive)
[14]
  GI50: 10.7 µM (inactive)
[15]
  GI50: > 50 µM (inactive)
[16]
  GI50: > 50 µM (inactive)
[17]
  GI50: > 50 µM (inactive)
[18]
  GI50: > 50 µM (inactive)
[19]
  GI50: > 50 µM (inactive)
[20]
  GI50: > 50 µM (inactive)
[22]
  GI50: > 50 µM (inactive)
[23]
  GI50: 11.3 µM (inactive)
[24]
  GI50: > 50 µM (inactive)
[25]
  GI50: 48.9 µM (inactive)
[26]
  GI50: > 50 µM (inactive)
[27]
  GI50: > 50 µM (inactive)
[28]
  GI50: > 50 µM (inactive)
[29]
  GI50: > 50 µM (inactive)
[30]
  GI50: > 50 µM (inactive)
[31]
  GI50: > 50 µM (inactive)
[33]
  GI50: > 50 µM (inactive)
[34]
  GI50: > 50 µM (inactive)
[36]
  GI50: > 50 µM (inactive)
[37]
  GI50: > 50 µM (inactive)
[38]
  GI50: > 50 µM (inactive)
[39]
  GI50: > 50 µM (inactive)
[40]
  GI50: > 50 µM (inactive)
[41]
  GI50: > 50 µM (inactive)
[42]
  GI50: > 50 µM (inactive)
[43]
  GI50: > 50 µM (inactive)
[44]
  GI50: > 50 µM (inactive)
[45]
  GI50: > 50 µM (inactive)
[46]
  GI50: > 50 µM (inactive)
[47]
  GI50: 17.7 µM (inactive)
[48]
  GI50: > 50 µM (inactive)
[50]
  GI50: > 50 µM (inactive)
[52]
  GI50: > 50 µM (inactive)
[53]
  GI50: > 50 µM (inactive)
[54]
  GI50: > 50 µM (inactive)
[55]
  GI50: > 50 µM (inactive)
[56]
  GI50: > 50 µM (inactive)
[57]
  GI50: 43 µM (inactive)
[58]
  GI50: > 50 µM (inactive)

## CCOC(=O)c1c(N2CCOCC2)[nH]c(=O)c(C(c2cccs2)c2c(O)c(C(=O)OCC)c(N3CCOCC3)[nH]c2=O)c1O
[1]
  GI50: > 100 µM (inactive)
[2]
  GI50: > 100 µM (inactive)
[3]
  GI50: > 100 µM (inactive)
[4]
  GI50: > 100 µM (inactive)
[5]
  GI50: > 100 µM (inactive)
[6]
  GI50: > 100 µM (inactive)
[7]
  GI50: > 100 µM (inactive)
[8]
  GI50: > 100 µM (inactive)
[9]
  GI50: > 100 µM (inactive)
[10]
  GI50: > 100 µM (inactive)
[11]
  GI50: > 100 µM (inactive)
[12]
  GI50: > 100 µM
[13]
  GI50: > 100 µM (inactive)
[14]
  GI50: > 100 µM (inactive)
[15]
  GI50: > 100 µM (inactive)
[16]
  GI50: > 100 µM (inactive)
[17]
  GI50: > 100 µM (inactive)
[18]
  GI50: > 100 µM (inactive)
[19]
  GI50: > 100 µM (inactive)
[20]
  GI50: > 100 µM (inactive)
[21]
  GI50: > 100 µM (inactive)
[22]
  GI50: > 100 µM (inactive)
[23]
  GI50: > 100 µM (inactive)
[25]
  GI50: > 100 µM (inactive)
[26]
  GI50: > 100 µM (inactive)
[27]
  GI50: > 100 µM (inactive)
[28]
  GI50: > 100 µM (inactive)
[29]
  GI50: > 100 µM (inactive)
[30]
  GI50: > 100 µM (inactive)
[31]
  GI50: > 100 µM (inactive)
[32]
  GI50: > 100 µM (inactive)
[33]
  GI50: > 100 µM (inactive)
[34]
  GI50: > 100 µM (inactive)
[35]
  GI50: > 100 µM (inactive)
[36]
  GI50: > 100 µM (inactive)
[37]
  GI50: > 100 µM (inactive)
[38]
  GI50: > 100 µM (inactive)
[39]
  GI50: > 100 µM (inactive)
[40]
  GI50: > 100 µM (inactive)
[41]
  GI50: > 100 µM (inactive)
[42]
  GI50: > 100 µM (inactive)
[43]
  GI50: > 100 µM (inactive)
[59]
  GI50: > 100 µM (inactive)
[44]
  GI50: > 100 µM (inactive)
[45]
  GI50: > 100 µM (inactive)
[46]
  GI50: > 100 µM (inactive)
[47]
  GI50: > 100 µM (inactive)
[48]
  GI50: > 100 µM (inactive)
[49]
  GI50: > 100 µM (inactive)
[50]
  GI50: > 100 µM (inactive)
[52]
  GI50: > 100 µM (inactive)
[53]
  GI50: > 100 µM (inactive)
[54]
  GI50: > 100 µM (inactive)
[55]
  GI50: > 100 µM (inactive)
[56]
  GI50: > 100 µM (inactive)
[57]
  GI50: > 100 µM (inactive)
[58]
  GI50: > 100 µM (inactive)
